≈ marks a conversion by molar mass, not a printed value.
Tests used:
A549 = assay: Cytotoxicity against human A549 cells assessed as reduction in cell viability measured after 48 hrs by MTT assay; type: functional, cell-based; conditions: A549, 48 h
MG-63 [1] = assay: Cytotoxicity against human MG-63 cells assessed as reduction in cell viability measured after 48 hrs by MTT assay; type: functional, cell-based; conditions: MG-63, 48 h
Bel-7402 [2] = assay: Cytotoxicity against human Bel-7402 cells assessed as reduction in cell viability measured after 48 hrs by MTT assay; type: functional, cell-based; conditions: Bel-7402, 48 h
HeLa [3] = assay: Cytotoxicity against human HeLa cells assessed as reduction in cell viability measured after 48 hrs by MTT assay; type: functional, cell-based
NB-4 = assay: Antiproliferative activity against human NB-4 cells; type: functional, cell-based
MG-63 [4] = assay: Cytotoxicity against human MG-63 cells incubated for 48 hrs by MTT assay; type: functional, cell-based; conditions: MG-63, 48 h
Bel-7402 [5] = assay: Cytotoxicity against human Bel-7402 cells incubated for 48 hrs by MTT assay; type: functional, cell-based; conditions: Bel-7402, 48 h
SK-BR-3 = assay: Cytotoxicity against human SK-BR-3 cells incubated for 48 hrs by MTT assay; type: functional, cell-based; conditions: SK-BR-3, 48 h
HeLa [6] = assay: Cytotoxicity against human HeLa cells incubated for 48 hrs by MTT assay; type: functional, cell-based
MCF7 = assay: Cytotoxicity against human MCF7 cells assessed as reduction in cell viability by MTT assay; type: functional, cell-based
MDA-MB-231 = assay: Cytotoxicity against human MDA-MB-231 cells assessed as reduction in cell viability by MTT assay; type: functional, cell-based
[7] = Antioxidant activity assessed as DPPH radical scavenging activity relative to control; type: functional; parameters: concentration or dose not given beside the values
[8] = Antioxidant activity assessed as ABTS radical scavenging activity at 50 to 250 microg/ml incubated for 7 mins relative to control; type: functional; conditions: dose 50-250 µg/ml
[9] = Antioxidant activity assessed as DPPH radical scavenging activity at 50 to 250 microg/ml incubated for 20 mins relative to control; type: functional; conditions: dose 50-250 µg/ml
SW480 = assay: Antiproliferative activity against human SW480 cells assessed as reduction in cell viability measured after 48 hrs by trypan blue staining method; type: functional, cell-based; conditions: SW480, 48 h
HepG2 = assay: Antiproliferative activity against human HepG2 cells assessed as reduction in cell viability measured after 48 hrs by trypan blue staining method; type: functional, cell-based; conditions: HepG2, 48 h
Leishmania donovani = assay: Antiprotozoal activity against Leishmania donovani; type: functional; conditions: read-out: ED50 (the source's name)
Trypanosoma cruzi = assay: Antiprotozoal activity against Trypanosoma cruzi; type: functional; conditions: read-out: ED50 (the source's name)
Trypanosoma brucei = assay: Antiprotozoal activity against Trypanosoma brucei; type: functional; conditions: read-out: ED50 (the source's name)
Plasmodium falciparum [10] = assay: Antimalarial activity against chloroquine resistant Plasmodium falciparum K1 in human erythrocytes; type: functional, organism-based; conditions: K1, Erythrocyte
CHO = assay: Cytotoxicity against CHO cells measured after 48 hrs by MTT assay; type: toxicity, cell-based, Cricetulus griseus; conditions: chinese hamster
Bacillus subtilis = assay: Antibacterial activity against Bacillus subtilis ATCC 23857 by disc diffusion assay; type: functional
[11] = molecular target: Glucocorticoid receptor (Homo sapiens) (UniProt P04150); assay: Binding affinity to human GR assessed as inhibition of enzyme substrate complex formation
Vaccinia virus = assay: In vivo antiviral activity against Vaccinia virus infected in mouse assessed as reduction in virus severity of virus induced tail lesion at 250 mg/kg, po measured after 24 to 48 hrs relative to control; type: functional, Orthopoxvirus vaccinia; parameters: scale not given: the % may be the effect or the level left; conditions: time 24-48 hrs
Beta-secretase 1 = Beta-secretase 1 (Homo sapiens, UniProt P56817); assay: Inhibition of BACE1 (unknown origin)
[12] = Cytotoxicity against normal foreskin fibroblast cells (unknown origin); type: toxicity, cell-based
[13] = test system: Human immunodeficiency virus; assay: Antiviral activity against Human immunodeficiency virus; type: functional, organism-based; conditions: Human immunodeficiency virus 1
[14] = Cytotoxicity against normal lung fibroblast cells (unknown origin); type: toxicity, cell-based
[15] = Cytotoxicity against rhabdomyosarcoma cells (unknown origin); type: functional, cell-based; conditions: Rhabdomyosarcoma cell
[16] = Cytotoxicity against neuroblastoma cells (unknown origin); type: functional, cell-based; conditions: Neuroblastoma cell
[17] = Cytotoxicity against osteosarcoma cells (unknown origin); type: functional, cell-based; conditions: Osteosarcoma cell
[18] = test system: unidentified influenza virus; assay: Antiviral activity against influenza virus; type: functional, organism-based
[19] = test system: Vesicular stomatitis virus; assay: Antiviral activity against Vesicular stomatitis virus; type: functional, organism-based
[20] = Cytotoxicity against normal primary bone marrow fibroblast cells (unknown origin); type: toxicity, cell-based
[21] = Cytotoxicity against ewing sarcoma cells (unknown origin); type: functional, cell-based; conditions: Ewing sarcoma cell
[22] = Activation of AMPK in rat L6 cells assessed as increase in AMPK phosphorylation; type: cell-based
Plasmodium falciparum [23] = assay: Antimalarial activity against chloroquine resistant Plasmodium falciparum K14 in human blood assessed as reduction in parasitemia measured after 42 hrs; type: functional, organism-based

Chain of Glucocorticoid receptor (Homo sapiens) (P04150 whole entry): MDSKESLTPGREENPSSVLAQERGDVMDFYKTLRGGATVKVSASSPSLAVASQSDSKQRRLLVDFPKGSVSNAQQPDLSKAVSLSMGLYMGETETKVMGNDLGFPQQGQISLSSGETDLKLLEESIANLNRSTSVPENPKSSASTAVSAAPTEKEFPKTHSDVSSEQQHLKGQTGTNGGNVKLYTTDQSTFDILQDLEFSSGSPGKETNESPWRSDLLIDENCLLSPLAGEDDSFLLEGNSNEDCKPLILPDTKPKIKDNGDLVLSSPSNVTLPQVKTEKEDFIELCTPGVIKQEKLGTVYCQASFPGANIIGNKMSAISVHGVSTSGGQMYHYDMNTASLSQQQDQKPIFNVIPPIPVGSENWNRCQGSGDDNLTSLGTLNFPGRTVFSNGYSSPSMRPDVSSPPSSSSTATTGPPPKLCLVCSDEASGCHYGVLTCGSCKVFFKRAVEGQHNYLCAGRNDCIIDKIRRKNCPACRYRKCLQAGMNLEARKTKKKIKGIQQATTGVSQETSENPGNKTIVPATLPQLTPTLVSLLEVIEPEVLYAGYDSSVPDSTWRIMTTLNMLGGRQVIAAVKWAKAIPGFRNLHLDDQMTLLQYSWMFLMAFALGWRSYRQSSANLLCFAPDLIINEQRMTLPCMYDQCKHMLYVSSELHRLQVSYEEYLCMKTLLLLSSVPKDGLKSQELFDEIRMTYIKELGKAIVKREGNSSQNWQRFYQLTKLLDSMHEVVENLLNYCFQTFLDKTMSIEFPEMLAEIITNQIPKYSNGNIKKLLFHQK
Chain of Beta-secretase 1 (P56817 whole entry): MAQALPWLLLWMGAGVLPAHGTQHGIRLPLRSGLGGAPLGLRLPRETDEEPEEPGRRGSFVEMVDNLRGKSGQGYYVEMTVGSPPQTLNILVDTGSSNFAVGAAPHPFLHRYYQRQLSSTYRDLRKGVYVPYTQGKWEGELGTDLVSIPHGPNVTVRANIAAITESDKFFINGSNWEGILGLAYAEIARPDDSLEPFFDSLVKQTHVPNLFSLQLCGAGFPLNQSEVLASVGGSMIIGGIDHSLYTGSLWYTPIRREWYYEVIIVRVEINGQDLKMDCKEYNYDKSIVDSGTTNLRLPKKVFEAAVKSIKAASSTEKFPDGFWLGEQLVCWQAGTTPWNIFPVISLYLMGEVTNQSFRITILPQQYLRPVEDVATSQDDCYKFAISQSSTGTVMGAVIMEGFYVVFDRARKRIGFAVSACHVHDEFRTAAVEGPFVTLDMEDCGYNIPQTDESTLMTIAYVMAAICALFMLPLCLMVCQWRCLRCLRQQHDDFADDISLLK

## CC(=O)C1C(=O)C[C@@H]2CC[C@@]13c1c(cccc12)Oc1ccc2ccccc2c13 (some centres undefined)
A549
  IC50: 54.9 µM
MG-63 [1]
  IC50: 82.5 µM
Bel-7402 [2]
  IC50: 17.1 µM
HeLa [3]
  IC50: 30.1 µM

## Fc1ccc(C2c3cc(-c4ccccc4)ccc3Oc3ccc4ccccc4c32)cc1 (centres undefined)
NB-4
  IC50: > 50 µM

## O=C1C(CO)=Cc2cccc3c2C1(O)c1c(ccc2ccccc12)O3 (centres undefined)
MG-63 [4]
  IC50: 54.8 µM
Bel-7402 [5]
  IC50: 45.2 µM
SK-BR-3
  IC50: 26.2 µM
HeLa [6]
  IC50: 68.8 µM

## CNC(=O)c1ccc2c3c(ccc2c1)Oc1ccc2cc(C(=O)NC)ccc2c1C3c1ccc(F)cc1
NB-4
  IC50: 0.52 µM

## CC/C(=C1\c2ccccc2Oc2cc(OCCN3CCCC3)ccc21)c1ccccc1
MCF7
  IC50: 12.4 µM
MDA-MB-231
  IC50: 25.4 µM

## O=C(O)/C=C/c1ccc(O)c(O)c1
[7]
  Activity: 58.6%

## COc1ccc(C2c3c(ccc4ccccc34)Oc3ccc4ccccc4c32)cc1OC
[8]
  Activity: 70.8%
[9]
  Activity: 52.6%

## O=C1OC(=O)c2c1cc1ccc(O)c3c1c2-c1cc(O)c(O)cc1O3
SW480
  IC50: > 100 µM
HepG2
  IC50: > 100 µM

## Oc1ccc(C2c3c(ccc4ccccc34)Oc3ccc4ccccc4c32)cc1
[8]
  Activity: 73.2%
[9]
  Activity: 53.1%

## COc1ccc(C2c3c(ccc4ccccc34)Oc3ccc4ccccc4c32)cc1
[8]
  Activity: 67.5%
[9]
  Activity: 47.1%

## CN(C)CCCNC(=O)c1cc(C(C)(C)C)cc2c1Oc1c(C(=O)NCCCN(C)C)cc(C(C)(C)C)cc1C2(C)C
Leishmania donovani
  EC50: 0.55 µM
Trypanosoma cruzi
  EC50: 0.48 µM
Trypanosoma brucei
  EC50: 0.02 µM

## COC(=O)c1cc2ccc(O)c3c2c(c1C(=O)OC)-c1cc(O)c(O)cc1O3
SW480
  IC50: 32.9 µM
HepG2
  IC50: 34.8 µM

## CN(C)CCCNCC1c2ccccc2Oc2ccccc21
Plasmodium falciparum [10]
  IC50: 0.78 µM
CHO
  IC50: 331.1 µM

## COC(=O)[C@@]1(O)C[C@@H](OC(=O)c2c(C(=O)O[C@@H]3C[C@](O)(C(=O)OC)C[C@@H]4OC(C)(C)O[C@H]43)cc3ccc(O)c4c3c2-c2cc(O)c(O)cc2O4)[C@@H]2OC(C)(C)O[C@@H]2C1
[7]
  Activity: 28.1%

## O=C(OCCc1ccccc1)c1cc2ccc(O)c3c2c(c1C(=O)OCCc1ccccc1)-c1cc(O)c(O)cc1O3
SW480
  IC50: 2.57 µM
HepG2
  IC50: 4.76 µM
[7]
  Activity: 3.6%

## CNC(=O)c1ccc2c3c(ccc2c1)Oc1ccc2cc(C(=O)NC)ccc2c1C3c1ccc(Cl)cc1
NB-4
  IC50: 0.76 µM

## c1ccc(-c2ccc3c(c2)C(c2ccccc2)c2c(ccc4ccccc24)O3)cc1 (centres undefined)
NB-4
  IC50: > 50 µM

## Cc1ccc(O)c(COCc2cc(C)cc3c2Oc2ccc(C)cc2C3)c1
Bacillus subtilis
  MIC: 36.1 µg/mL (≈ 100 µM)

## O=C(N[C@H](CO)[C@H](O)c1ccc([N+](=O)[O-])cc1)C(Cl)Cl [CHLORAMPHENICOL]
Bacillus subtilis
  MIC: 68.7 µg/mL (≈ 213 µM)

## Cc1cc2nc3cc(C)c(N)cc3[n+](-c3ccccc3)c2cc1N
[11]
  Kis: 453 µM

## Cc1c(C)c2c(c(C)c1O)CCC(C)(CCCC(C)CCCC(C)CCCC(C)C)O2 (racemic)
[7]
  Activity: 61.1%

## COC(=O)c1cc2ccc(OC)c3c2c(c1C(=O)OC)-c1cc(OC)c(OC)cc1O3
SW480
  IC50: > 100 µM
HepG2
  IC50: > 100 µM

## O=C1C=Cc2cccc3c2C1c1c(ccc2ccccc12)O3 (centres undefined)
MG-63 [4]
  IC50: 20.1 µM
Bel-7402 [5]
  IC50: 17.6 µM
SK-BR-3
  IC50: 15.5 µM
HeLa [6]
  IC50: 18.5 µM

## O=[As][As+](=O)[O-] (centres undefined) [ARSENIC TRIOXIDE]
NB-4
  IC50: 5.31 µM

## c1ccc(C2c3c(ccc4ccccc34)Oc3ccc4ccccc4c32)cc1
[8]
  Activity: 63.5%
[9]
  Activity: 31.1%

## Clc1ccc(C2c3cc(-c4ccccc4)ccc3Oc3ccc4ccccc4c32)cc1 (centres undefined)
NB-4
  IC50: > 50 µM

## COC(=O)c1cc2ccc(OC(C)=O)c3c2c(c1C(=O)OC)-c1cc(OC(C)=O)c(OC(C)=O)cc1O3
SW480
  IC50: 25.5 µM
HepG2
  IC50: 28.6 µM

## CN(C)CC(=O)c1ccc2c(c1)Cc1cc(C(=O)CN(C)C)ccc1O2
Vaccinia virus
  Activity: 31%

## CCOC12C(=O)C(CO)=Cc3cc(CO)cc(c31)Oc1c(CO)cc3cc(CO)ccc3c12 (centres undefined)
MG-63 [4]
  IC50: 25.2 µM
Bel-7402 [5]
  IC50: 10.1 µM
SK-BR-3
  IC50: 6.2 µM
HeLa [6]
  IC50: 9.4 µM

## CC(C)(C)C(=O)N[C@H]1CC[C@@H]2Oc3ccc(-c4cncc(F)c4)cc3C3(CSC(N)=N3)[C@H]2C1 (some centres undefined)
Beta-secretase 1
  IC50: 0.0011 µM

## Cc1cc(C(C)(C)C)c(O)c(C(C)(C)C)c1
[7]
  Activity: 3.6%

## COc1cc2c(cc1OC)-c1c(C(=O)OCCc3ccccc3)c(C(=O)OCCc3ccccc3)cc3ccc(OC)c(c13)O2
SW480
  IC50: > 100 µM
HepG2
  IC50: > 100 µM

## COCc1cc(C)cc2c1Oc1ccc(C)cc1C2
Bacillus subtilis
  MIC: 25.4 µg/mL (≈ 99.9 µM)

## Cc1ccc(C2c3cc(-c4ccccc4)ccc3Oc3ccc4ccccc4c32)cc1 (centres undefined)
NB-4
  IC50: > 50 µM

## O=C(O)CCc1c2ccc(=O)cc-2oc2cc(O)ccc12
[11]
  Kis: 27 µM

## COc1cc(C2c3c(ccc4ccccc34)Oc3ccc4ccccc4c32)ccc1O
[8]
  Activity: 83.1%
[9]
  Activity: 86.8%

## CC(=O)Oc1cc2c(cc1OC(C)=O)-c1c(C(=O)OCCc3ccccc3)c(C(=O)OCCc3ccccc3)cc3ccc(OC(C)=O)c(c13)O2
SW480
  IC50: 3.21 µM
HepG2
  IC50: 26.7 µM

## O=C(O)c1c(Cl)c(Cl)c(Cl)c(Cl)c1-c1c2cc(I)c(=O)c(I)c-2oc2c(I)c(O)c(I)cc12 [ROSE BENGAL SODIUM]
[12]
  IC50: 73 µM
[13]
  IC50: 0.05 µM
[14]
  IC50: 75 µM
[15]
  IC50: 51 µM
[16]
  IC50: 73 µM
[17]
  IC50: 75 µM
[18]
  IC50: 0.3 µM
[19]
  IC50: 0.008 µM
[20]
  IC50: 136 µM
[21]
  IC50: 45 µM

## N#Cc1cccc(NC(=O)NC(NC(=O)C2c3ccccc3Oc3ccccc32)C(Cl)(Cl)Cl)c1 (centres undefined)
[22]
  EC50: 1.5 µM

## COC12C(=O)C=Cc3cc(Br)cc(c31)Oc1ccc3cc(Br)ccc3c12 (centres undefined)
MG-63 [4]
  IC50: 39.2 µM
Bel-7402 [5]
  IC50: 42.3 µM
SK-BR-3
  IC50: 14.3 µM
HeLa [6]
  IC50: 28.1 µM

## O=C(Nc1cccc([N+](=O)[O-])c1)NC(NC(=O)C1c2ccccc2Oc2ccccc21)C(Cl)(Cl)Cl (centres undefined)
[22]
  EC50: 1.5 µM

## CN(C)C(=N)NC(=N)N [METFORMIN]
[22]
  EC50: 10000 µM

## CCOc1ccc(N2C(=O)C3(c4ccccc4Oc4ccccc43)C23c2ccccc2-c2ccccc23)cc1
Plasmodium falciparum [23]
  IC50: 5 µM
